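Exposure lasted 48 hours, with cells grown in 96-well plates and compounds tested at five concentrations. Abbreviation: GI50, concentration required for 50% inhibition of growth. At the TGI there is no net growth.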
What was measured:
Assay in all cases: DTP human tumour cell line panel, 48 h
HOP-92 NSCLC = system: HOP-92 NSCLC
CAKI-1 renal = system: CAKI-1 renal
786-0 renal = system: 786-0 renal
SN12C renal = system: SN12C renal
M14 melanoma = system: M14 melanoma
A549 NSCLC = system: A549 NSCLC
SK-MEL-5 melanoma = system: SK-MEL-5 melanoma
NCI-H460 lung = system: NCI-H460 lung
SK-MEL-28 melanoma = system: SK-MEL-28 melanoma
SF-539 CNS = system: SF-539 CNS
SNB-19 CNS = system: SNB-19 CNS
SF-295 CNS = system: SF-295 CNS
UO-31 renal = system: UO-31 renal
CCRF-CEM leukemia = system: CCRF-CEM leukemia
NCI-H23 lung = system: NCI-H23 lung
MDA-MB-468 breast = system: MDA-MB-468 breast
KM12 colon = system: KM12 colon
HL-60(TB) leukemia = system: HL-60(TB) leukemia
EKVX NSCLC = system: EKVX NSCLC
SW-620 colon = system: SW-620 colon
LOX IMVI melanoma = system: LOX IMVI melanoma
PC-3 prostate = system: PC-3 prostate
NCI-H226 lung = system: NCI-H226 lung
SNB-75 CNS = system: SNB-75 CNS
MDA-MB-435 = system: MDA-MB-435
IGROV1 ovarian = system: IGROV1 ovarian
MALME-3M melanoma = system: MALME-3M melanoma
SK-OV-3 ovarian = system: SK-OV-3 ovarian
HOP-62 NSCLC = system: HOP-62 NSCLC
MOLT-4 leukemia = system: MOLT-4 leukemia
OVCAR-8 ovarian = system: OVCAR-8 ovarian
RXF 393 renal = system: RXF 393 renal
HCT-116 colon = system: HCT-116 colon
DU-145 prostate = system: DU-145 prostate
SR leukemia = system: SR leukemia
ACHN renal = system: ACHN renal
NCI-H522 lung = system: NCI-H522 lung
OVCAR-4 ovarian = system: OVCAR-4 ovarian
MDA-MB-231 breast = system: MDA-MB-231 breast
HCC-2998 colon = system: HCC-2998 colon
OVCAR-3 ovarian = system: OVCAR-3 ovarian
K-562 leukemia = system: K-562 leukemia
HCT-15 colon = system: HCT-15 colon
A498 renal = system: A498 renal
SK-MEL-2 melanoma = system: SK-MEL-2 melanoma
TK-10 renal = system: TK-10 renal
UACC-62 melanoma = system: UACC-62 melanoma
BT-549 breast = system: BT-549 breast
T-47D breast = system: T-47D breast
MCF7 breast = system: MCF7 breast
UACC-257 melanoma = system: UACC-257 melanoma
HS 578T breast = system: HS 578T breast
COLO 205 colon = system: COLO 205 colon
RPMI-8226 leukemia = system: RPMI-8226 leukemia
HT29 colon = system: HT29 colon
OVCAR-5 ovarian = system: OVCAR-5 ovarian
U251 CNS = system: U251 CNS

`O=c1oc2ccc(-c3ccc(F)cc3F)cc2c(=O)n1-c1ccc(F)cc1` gave a GI50 (HOP-92 NSCLC) of 0.95 µM, a TGI (HOP-92 NSCLC) of 4.48 µM and a GI50 (CAKI-1 renal) of 1.48 µM. The TGI (CAKI-1 renal) was 5.1 µM, the GI50 (786-0 renal) was 5.51 µM and the TGI (786-0 renal) was 53.7 µM. It also gave a GI50 (SN12C renal) of 2.12 µM, a TGI (SN12C renal) of 8.04 µM and a GI50 (M14 melanoma) of 3.49 µM. The TGI (M14 melanoma) was > 100 µM, the GI50 (A549 NSCLC) was 3.25 µM and the TGI (A549 NSCLC) was > 100 µM. The GI50 (SK-MEL-5 melanoma) was 0.799 µM, the TGI (SK-MEL-5 melanoma) was 2.3 µM and the GI50 (NCI-H460 lung) was 2.3 µM. The TGI (NCI-H460 lung) was 11.9 µM, the GI50 (SK-MEL-28 melanoma) was 3.23 µM and the TGI (SK-MEL-28 melanoma) was > 100 µM. It also gave a GI50 (SF-539 CNS) of 2.88 µM, a TGI (SF-539 CNS) of 12.1 µM and a GI50 (SNB-19 CNS) of 3.58 µM. For the same compound, the TGI (SNB-19 CNS) was > 100 µM, the GI50 (SF-295 CNS) was 3.46 µM and the TGI (SF-295 CNS) was 12.8 µM. For the same compound, the GI50 (UO-31 renal) was 2.3 µM, the TGI (UO-31 renal) was 9.44 µM and the GI50 (CCRF-CEM leukemia) was 3.18 µM. The TGI (CCRF-CEM leukemia) was 9.84 µM, the GI50 (NCI-H23 lung) was 2.08 µM and the TGI (NCI-H23 lung) was 6.78 µM. The GI50 (MDA-MB-468 breast) was 1.87 µM, the TGI (MDA-MB-468 breast) was 5.67 µM and the GI50 (KM12 colon) was 3.07 µM. The TGI (KM12 colon) was 10.7 µM, the GI50 (HL-60(TB) leukemia) was 2.01 µM and the TGI (HL-60(TB) leukemia) was 6.13 µM. The GI50 (EKVX NSCLC) was 2.8 µM, the TGI (EKVX NSCLC) was > 100 µM and the GI50 (SW-620 colon) was 3.23 µM. For the same compound, the TGI (SW-620 colon) was > 100 µM, the GI50 (LOX IMVI melanoma) was 3.21 µM and the TGI (LOX IMVI melanoma) was 11.2 µM. The GI50 (PC-3 prostate) was 2.8 µM, the TGI (PC-3 prostate) was 11.7 µM and the GI50 (NCI-H226 lung) was 1.45 µM. The TGI (NCI-H226 lung) was 6.5 µM, the GI50 (SNB-75 CNS) was 1.38 µM and the TGI (SNB-75 CNS) was 5.53 µM. It also gave a GI50 (MDA-MB-435) of 1.73 µM, a TGI (MDA-MB-435) of 7.09 µM and a GI50 (IGROV1 ovarian) of 3.02 µM. For the same compound, the TGI (IGROV1 ovarian) was > 100 µM, the GI50 (MALME-3M melanoma) was 1.62 µM and the TGI (MALME-3M melanoma) was 5.34 µM. For the same compound, the GI50 (SK-OV-3 ovarian) was 2.15 µM, the TGI (SK-OV-3 ovarian) was 6.37 µM and the GI50 (HOP-62 NSCLC) was 2.39 µM. For the same compound, the TGI (HOP-62 NSCLC) was 6.93 µM, the GI50 (MOLT-4 leukemia) was 2.08 µM and the TGI (MOLT-4 leukemia) was 8.27 µM. For the same compound, the GI50 (OVCAR-8 ovarian) was 3.52 µM, the TGI (OVCAR-8 ovarian) was > 100 µM and the GI50 (RXF 393 renal) was 1.55 µM. It also gave a TGI (RXF 393 renal) of 5.63 µM, a GI50 (HCT-116 colon) of 3.12 µM and a TGI (HCT-116 colon) of 18.8 µM. For the same compound, the GI50 (DU-145 prostate) was 3.3 µM, the TGI (DU-145 prostate) was > 100 µM and the GI50 (SR leukemia) was 2.45 µM. For the same compound, the TGI (SR leukemia) was > 100 µM, the GI50 (ACHN renal) was 3.88 µM and the TGI (ACHN renal) was > 100 µM. The GI50 (NCI-H522 lung) was 1.23 µM, the TGI (NCI-H522 lung) was 6.15 µM and the GI50 (OVCAR-4 ovarian) was 2.08 µM. The TGI (OVCAR-4 ovarian) was 54.1 µM, the GI50 (MDA-MB-231 breast) was 1.76 µM and the TGI (MDA-MB-231 breast) was 4.41 µM. For the same compound, the GI50 (HCC-2998 colon) was 3.31 µM, the TGI (HCC-2998 colon) was 13.9 µM and the GI50 (OVCAR-3 ovarian) was 2.49 µM. The TGI (OVCAR-3 ovarian) was 14 µM, the GI50 (K-562 leukemia) was 1.58 µM and the TGI (K-562 leukemia) was > 100 µM. The GI50 (HCT-15 colon) was 2.91 µM, the TGI (HCT-15 colon) was > 100 µM and the GI50 (A498 renal) was 1.91 µM. It also gave a TGI (A498 renal) of 6.17 µM, a GI50 (SK-MEL-2 melanoma) of 1.79 µM and a TGI (SK-MEL-2 melanoma) of 4.6 µM. The GI50 (TK-10 renal) was 2.78 µM, the TGI (TK-10 renal) was > 100 µM and the GI50 (UACC-62 melanoma) was 1.37 µM. The TGI (UACC-62 melanoma) was 4.65 µM, the GI50 (BT-549 breast) was 1.92 µM and the TGI (BT-549 breast) was 5.89 µM. For the same compound, the GI50 (T-47D breast) was 0.502 µM, the TGI (T-47D breast) was 4.32 µM and the GI50 (MCF7 breast) was 2.51 µM. The TGI (MCF7 breast) was > 100 µM, the GI50 (UACC-257 melanoma) was 1.64 µM and the TGI (UACC-257 melanoma) was 6.78 µM. For the same compound, the GI50 (HS 578T breast) was 2.27 µM, the TGI (HS 578T breast) was 7.51 µM and the GI50 (COLO 205 colon) was 16.3 µM. The TGI (COLO 205 colon) was 34.8 µM, the GI50 (RPMI-8226 leukemia) was 1.33 µM and the TGI (RPMI-8226 leukemia) was 7.13 µM. The GI50 (HT29 colon) was 10.3 µM, the TGI (HT29 colon) was 75.8 µM and the GI50 (OVCAR-5 ovarian) was 3.2 µM. For the same compound, the TGI (OVCAR-5 ovarian) was > 100 µM, the GI50 (U251 CNS) was 2.82 µM and the TGI (U251 CNS) was 17.3 µM.
